Measurements from ChEMBL document CHEMBL1142441, “Stereochemical studies on the novel monoamine oxidase B substrates (1R,6S)- and (1S,6R)-3-methyl-6-phenyl-3-aza-bicyclo[4.1.0]heptane” (Bioorg Med Chem, 2008).

Biological target: T1, Amine oxidase [flavin-containing] B (Homo sapiens, UniProt P27338)
T1 sequence (P27338 whole entry): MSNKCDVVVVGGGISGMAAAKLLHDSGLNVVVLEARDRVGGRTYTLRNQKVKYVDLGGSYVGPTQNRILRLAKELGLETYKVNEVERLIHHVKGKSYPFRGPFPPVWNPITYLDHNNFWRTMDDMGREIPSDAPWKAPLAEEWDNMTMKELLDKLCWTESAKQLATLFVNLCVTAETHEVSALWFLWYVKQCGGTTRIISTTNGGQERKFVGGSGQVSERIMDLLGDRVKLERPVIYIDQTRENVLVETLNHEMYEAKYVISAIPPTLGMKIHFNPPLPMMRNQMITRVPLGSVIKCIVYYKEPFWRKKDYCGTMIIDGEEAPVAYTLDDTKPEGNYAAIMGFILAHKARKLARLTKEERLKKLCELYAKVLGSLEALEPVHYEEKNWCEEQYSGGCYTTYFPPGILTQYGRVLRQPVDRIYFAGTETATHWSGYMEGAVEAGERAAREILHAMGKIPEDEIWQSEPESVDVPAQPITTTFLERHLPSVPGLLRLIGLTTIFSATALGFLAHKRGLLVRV
Test: Activity of 50 nM human recombinant MAOB after 30 mins
Conditions: 0.5 h

| Structure (SMILES) | Vmax [nmol] |
| --- | --- |
| CN1CC[C@@]2(c3ccccc3)C[C@H]2C1 | 135 |
| CN1CC[C@]2(c3ccccc3)C[C@@H]2C1 | 135 |
